Data: PubChem BioAssay AID1919015 (Molecular Pharmacology Branch, DTP, NCI, 2023)

System: OVCAR-5 complex spheroids with HUVEC/MSC, viability, % test/control
Assay: Anticancer human tumor OVCAR-5 cell line growth inhibition [AhR];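 further: spheroids exposed to compounds for 7 days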;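 on viability, T/C: 100% = DMSO vehicle control wells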
Conditions: for IC50: curve of first compound; for viability, T/C: stronger effect = lower value
Excerpt: Multicellular complex tumor spheroid response to aryl hydrocarbon receptor antagonists in combination with a variety of drugs and investigational agents in selected tumor cell lines
The current study was undertaken to assess response to aryl hydrocarbon receptor antagonists in combination with standard-of-care drugs and investigational agents in solid tumor complex spheroid models. Complex spheroids include a stromal component modeled by human endothelial cells (HUVEC) and fibroblasts modeled by human mesenchymal stem cells (MSCs). The concentration ranges selected for each drug and investigational agent were based upon clinically achievable concentrations if the clinical Cmax of the agent was known.
Compounds. The drugs and investigational agents: BAY 2416964 (NSC825713), GNF351 (NSC835774), CH-223191 (NSC835775), CPI-455 (NSC825282), aza-TdCyd (NSC777586), decitabine (NSC127716), belinostat (NSC758774), entinostat (NSC756642), pevonedistat (NSC761192), tazemetostat (NSC777109), talazoparib (NSC765396), olaparib (NSC753686), selinexor (NSC780203), nedisertib (M3814, NSC802822), bortezomib (NSC756655), venetoclax (NSC766270), doxorubicin (NSC123127), elimusertib (BAY189344, NSC800525), ceralasertib (AZD6738, NSC777638), TAK-243 (NSC785004), alisertib (NSC759677), etoposide (NSC141540), topotecan (NSC609699), eribulin (NSC707389), gemcitabine (NSC613327), carboplatin (NSC241240), cisplatin (NSC119875), and SN-38 (NSC673596) were obtained from the National Cancer Institute (NCI) Developmental Therapeutics Program Chemical Repository (32). The FDA-approved anticancer drug set is available from the Developmental Therapeutics Program at https://dtp.cancer.gov/organization/dscb/obtaining/available plates.htm. […] The stock solutions were prepared in dimethyl sulfoxide (DMSO, Sigma-Aldrich, St. Louis, MO, cat. D2650), except for the platinum compounds which were prepared in saline (Quality Biological, Gaithersburg, MD, cat. 114-055-101), at 800-fold the tested concentration and stored at -70 degrees C prior to their use. All drugs and investigational agents were tested over a range starting from a high concentration at or near the clinical Cmax and decreasing in half-log increments. If the clinical Cmax for an agent had not been determined, the highest concentration tested was 10 microM (Table 1).
Cell Culture. All cells were maintained in an incubator at 37 degrees C and 5% CO2 with 95% humidity. The PDC lines were cultured according to standard operating procedures established by the NCI PDMR (https://pdmr.cancer.gov). Briefly, all PDCs were thawed and cultured in Matrigel-coated flasks prepared with a working solution of 1X Ham's F-12 nutrient mix, without supplementation (Invitrogen, Waltham, MA, cat. 11765054), 100 U/mL penicillin-streptomycin (Invitrogen, cat. 15140122), and 2.5% Matrigel (Corning Inc., Corning, NY, cat. 354248) for the first three passages. All PDCs were cultured in complete DMEM/F-12 media containing advanced DMEM/F-12 (Invitrogen, cat. 12634028), 4.9% defined fetal bovine serum, heat inactivated (HyClone Laboratories Inc., Logan, UT, cat. SH30070.03HI), 389 ng/mL hydrocortisone (Sigma-Aldrich, cat. H4001), 9.7 ng/mL human EGF recombinant protein (Invitrogen, cat. PHG0313), 23.4 microg/mL adenine (Sigma-Aldrich, cat. A2786), 97.3 U/mL penicillin-streptomycin (Invitrogen, cat. 15140122), 1.9 mM L-glutamine (Invitrogen, cat. 25030081), and 9.7 microM Y-27632 dihydrochloride (Tocris Bioscience, Bristol, United Kingdom, cat. 1254). The PDCs were cultured in complete DMEM/F12 media without 10 microM Y-27632 dihydrochloride for at least two passages prior to the screen. The established cell lines NCI-H1341 and […] were cultured in DMEM/F-12, HEPES (Invitrogen, cat. 11330032), 5% defined fetal bovine serum (HyClone Laboratories Inc., cat. SH30070.03), ITS premix universal culture supplement [insulin (5 microg/mL), transferrin (5 microg/mL), and selenious acid (5 ng/mL)] […]

[1] = second compound 0.1 µM, first compound 0.0316 µM
[2] = second compound 0.1 µM, first compound 0.1 µM
[3] = second compound 0.1 µM, first compound 0.316 µM
[4] = second compound 0.1 µM, first compound 1 µM
[5] = second compound 0.316 µM, first compound 0.0316 µM
[6] = second compound 0.316 µM, first compound 0.1 µM
[7] = second compound 0.316 µM, first compound 0.316 µM
[8] = second compound 0.316 µM, first compound 1 µM
[9] = second compound 1 µM, first compound 0.0316 µM
[10] = second compound 1 µM, first compound 0.1 µM
[11] = second compound 1 µM, first compound 0.316 µM
[12] = second compound 1 µM, first compound 1 µM
[13] = second compound 3.16 µM, first compound 0.0316 µM
[14] = second compound 3.16 µM, first compound 0.1 µM
[15] = second compound 3.16 µM, first compound 0.316 µM
[16] = second compound 3.16 µM, first compound 1 µM
[17] = second compound 10 µM, first compound 0.0316 µM
[18] = second compound 10 µM, first compound 0.1 µM
[19] = second compound 10 µM, first compound 0.316 µM
[20] = second compound 10 µM, first compound 1 µM

| Compound | IC50 (second compound 0.1 µM) [nM] | IC50 (second compound 0.316 µM) [nM] | IC50 (second compound 1 µM) [nM] | IC50 (second compound 3.16 µM) [nM] | IC50 (second compound 10 µM) [nM] | viability, T/C [1] [%] | viability, T/C [2] [%] | viability, T/C [3] [%] | viability, T/C [4] [%] | viability, T/C [5] [%] | viability, T/C [6] [%] | viability, T/C [7] [%] | viability, T/C [8] [%] | viability, T/C [9] [%] | viability, T/C [10] [%] | viability, T/C [11] [%] | viability, T/C [12] [%] | viability, T/C [13] [%] | viability, T/C [14] [%] | viability, T/C [15] [%] | other results |
| --- | --- | --- | --- | --- | --- | --- | --- | --- | --- | --- | --- | --- | --- | --- | --- | --- | --- | --- | --- | --- | --- |
| COc1cccc2c1C(=O)c1c(O)c3c(c(O)c1C2=O)CC(O)(C(=O)CO)CC3OC1CC(N)C(O)C(C)O1 (stereo not given) + CC(CO)NC(=O)c1cc(-c2ccc(Cl)cc2)nn(-c2cnn(C)c2)c1=O | 267 | 285 | 347 | 351 | 326 | 79.8 | 62.8 | 50 | 23.5 | 80 | 63.9 | 50.9 | 23.3 | 82.5 | 71.5 | 53.1 | 23.8 | 77 | 70.1 | 52.7 | viability, T/C (second compound 0.1 µM, first compound 3.16 µM): 3.18%; viability, T/C (second compound 0.1 µM, first compound 10 µM): 0.94%; viability, T/C (second compound 0.316 µM, first compound 3.16 µM): 2.8%; viability, T/C (second compound 0.316 µM, first compound 10 µM): 0.91%; viability, T/C (second compound 1 µM, first compound 3.16 µM): 2.66%; viability, T/C (second compound 1 µM, first compound 10 µM): 0.86%; viability, T/C [16]: 22.9%; viability, T/C (second compound 3.16 µM, first compound 3.16 µM): 1.63%; viability, T/C (second compound 3.16 µM, first compound 10 µM): 1.01%; viability, T/C [17]: 72.7%; viability, T/C [18]: 76.2%; viability, T/C [19]: 49.5%; viability, T/C [20]: 15%; viability, T/C (second compound 10 µM, first compound 3.16 µM): 0.79%; viability, T/C (second compound 10 µM, first compound 10 µM): 1.12% |
| Nc1ncn(C2CC(O)C(CO)O2)c(=O)n1 (stereo not given) + CC(CO)NC(=O)c1cc(-c2ccc(Cl)cc2)nn(-c2cnn(C)c2)c1=O | > 1000 | > 1000 | > 1000 | > 1000 | > 1000 | 98 | 88.5 | 72.6 | 62.4 | 99 | 83.2 | 70.8 | 62 | 109 | 91.6 | 71.3 | 66.4 | 97.9 | 83.7 | 70.6 | viability, T/C (second compound 0.1 µM, first compound 0.00316 µM): 107%; viability, T/C (second compound 0.1 µM, first compound 0.01 µM): 106%; viability, T/C (second compound 0.316 µM, first compound 0.00316 µM): 107%; viability, T/C (second compound 0.316 µM, first compound 0.01 µM): 107%; viability, T/C (second compound 1 µM, first compound 0.00316 µM): 116%; viability, T/C (second compound 1 µM, first compound 0.01 µM): 114%; viability, T/C (second compound 3.16 µM, first compound 0.00316 µM): 105%; viability, T/C (second compound 3.16 µM, first compound 0.01 µM): 99.4%; viability, T/C [16]: 59.2%; viability, T/C (second compound 10 µM, first compound 0.00316 µM): 97.6%; viability, T/C (second compound 10 µM, first compound 0.01 µM): 99.9%; viability, T/C [17]: 97.4%; viability, T/C [18]: 88.4%; viability, T/C [19]: 72.9%; viability, T/C [20]: 64.2% |
